Patent publication US7018623B2, “B complex vitamin compositions that protect against cellular damage caused by ultraviolet light” (priority 2001, dated 2006)

How the values were obtained:
[1] = test system: human volunteers exposed to direct sunlight; test: Oral self-administration of B vitamins by human subjects, sunburning on continuous exposure to sunlight; format: in vivo; details: for expected sunburning effects of continuous sun exposure: one patient, a year and a half, oral, B12 300–500 mcg/day, folic acid 2–5 mg/day, or both with niacinamide 200–500 mg/day
Description: 1. Over the period of four weeks a white middle aged couple in their forties on holiday in Mexico self administered 400–600 mcg vitamin B12/day in the form of 100 mcg tablets.
2. Over the period of a year and a half a […] self-administered vitamin B12 alone at 300 mcg to 500 mcg/day in the form of 100 mcg tablets, folic acid alone in the form of folic acid alone at 2 mg–5 mg/day in the form of 1 mg tablets or a combination of both vitamins in the same dose range taken with niacinamide 200 mg–500 mg/day in the form of 100 mg tablets. […] Normal burning rates returned within 24 hrs of the cessation of oral administration of the various formulations.
3. […] The published UVB index gave an expected time of continuous exposure to sunlight in the Edmonton AB area of 45 minutes. The maximum SPF (skin protection factor) was computed to be approximately 330/45=7.3.
5. These experiments have been repeated with approximately twenty human volunteers of various skin types ranging in age from 25 to 35 years. Most were female, one was a qualified physician, and many were qualified nurses or other healthcare professionals trained in observing symptoms of skin burning. Over the past year, a variety of different combinations of the three B complex vitamins were tested by exposure of these individuals to direct sunlight in locales such as Alberta Canada, Kelowna Canada, Mexico, Montego Bay Jamaica, San Diego Calif., Phoenix Ariz., Los Angeles Calif., and Honolulu, Hi. either in the course of their work or on vacation. The subjects had various skin types and were of many different nationalities.

[2] = human, topical application; cited from earlier work

Compound: Nc1nc2ncc(CNc3ccc(C(=O)N[C@@H](CCC(=O)O)C(=O)O)cc3)nc2c(=O)[nH]1 [folic acid]
- expected sunburning effects of continuous sun exposure [1]: some amelioration of the expected sunburning effects

Compound: COc1ccc(C(=O)c2ccccc2)c(O)c1 [oxybenzone]
- systemic absorption and urinary excretion after application to the skin [2]: absorbed systemically and excreted in human urine soon after application to the skin

Compound: vitamin B12
- rate of sunburning when exposed continuously to sunlight ([1]; 400–600 mcg/day oral, four weeks, couple in Mexico, versus past experience and versus not taking the supplement): significant reduction in the rate of sunburning
- expected sunburning effects of continuous sun exposure [1]: some amelioration of the expected sunburning effects
